From ChEMBL document CHEMBL3868599, “Strategy for designing selective α-l-rhamnosidase inhibitors: Synthesis and biological evaluation of l-DMDP cyclic isothioureas” (Bioorg Med Chem, 2017) come the findings set out here.

The term IC50 denotes the midpoint of a concentration-inhibition curve. Higher therefore signals weaker potency in that assay. As usually defined, the inhibition is the percentage by which the read-out fell short of the control.

Experiment [1] is described as follows: Inhibition of Penicillium decumbens alpha-L-rhamnosidase.
The test system of a further experiment is Penicillium decumbens. Kind of experiment: Inhibition of Penicillium decumbens alpha-L-rhamnosidase at 1000 uM using p-nitrophenyl-glycoside as substrate by spectrophotometric method.
The subject of experiment [2] is Prunus dulcis. The experiment can be described thus: Inhibition of almond beta-glucosidase at 1000 uM using p-nitrophenyl-glycoside as substrate by spectrophotometric method.
The species named for experiment [3] is Bos taurus. Kind of experiment: Inhibition of bovine liver beta-glucosidase at 1000 uM using p-nitrophenyl-glycoside as substrate by spectrophotometric method.
For experiment [4], the species on record is Homo sapiens. Kind of experiment: Inhibition of human lysosomal beta-glucosidase at 1000 uM using 4-methylumbelliferyl-beta-D-glucopyranoside as substrate preincubated for 45 mins followed by substrate addition measured after 30 mins by fluorescence spectrophotometric method.
Experiment [5] has as its system Aspergillus niger. Kind of experiment: Inhibition of Aspergillus niger amyloglucosidase assessed as D-glucose level at 1000 uM using maltose as substrate measured after 10 to 30 mins.
Experiment [6] concerns Oryza sativa. The experiment can be described thus: Inhibition of rice alpha-glucosidase at 1000 uM using p-nitrophenyl-glycoside as substrate by spectrophotometric method.
The species entered for experiment [7] is Rattus norvegicus. Kind of experiment: Inhibition of rat intestinal maltase assessed as D-glucose level at 1000 uM using maltose as substrate measured after 10 to 30 mins.
Experiment [8] has as its target T1, Beta-galactosidase (Bos taurus) (UniProt Q58D55).
T1 sequence (whole entry): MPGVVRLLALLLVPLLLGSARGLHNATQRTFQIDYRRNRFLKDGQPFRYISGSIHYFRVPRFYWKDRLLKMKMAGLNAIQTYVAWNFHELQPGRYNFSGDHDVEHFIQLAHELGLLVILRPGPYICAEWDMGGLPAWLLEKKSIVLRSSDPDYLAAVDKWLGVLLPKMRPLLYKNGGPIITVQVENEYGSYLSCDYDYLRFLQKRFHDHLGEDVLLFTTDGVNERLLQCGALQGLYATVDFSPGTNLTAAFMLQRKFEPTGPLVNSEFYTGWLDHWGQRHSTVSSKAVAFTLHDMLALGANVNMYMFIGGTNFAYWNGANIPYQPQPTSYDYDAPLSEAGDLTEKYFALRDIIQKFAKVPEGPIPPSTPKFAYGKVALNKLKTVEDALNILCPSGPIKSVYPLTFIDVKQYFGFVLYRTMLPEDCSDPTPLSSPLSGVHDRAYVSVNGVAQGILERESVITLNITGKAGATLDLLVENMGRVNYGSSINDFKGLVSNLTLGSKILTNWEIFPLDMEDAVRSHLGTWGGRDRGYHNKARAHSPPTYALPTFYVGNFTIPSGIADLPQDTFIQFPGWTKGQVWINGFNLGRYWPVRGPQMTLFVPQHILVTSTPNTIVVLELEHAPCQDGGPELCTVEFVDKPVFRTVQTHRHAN
Kind of experiment: Inhibition of bovine liver beta-galactosidase at 1000 uM using p-nitrophenyl-glycoside as substrate by spectrophotometric method.

In experiment [9] the target is T2, Tissue alpha-L-fucosidase (Bos taurus) (UniProt Q2KIM0).
T2 sequence (whole entry): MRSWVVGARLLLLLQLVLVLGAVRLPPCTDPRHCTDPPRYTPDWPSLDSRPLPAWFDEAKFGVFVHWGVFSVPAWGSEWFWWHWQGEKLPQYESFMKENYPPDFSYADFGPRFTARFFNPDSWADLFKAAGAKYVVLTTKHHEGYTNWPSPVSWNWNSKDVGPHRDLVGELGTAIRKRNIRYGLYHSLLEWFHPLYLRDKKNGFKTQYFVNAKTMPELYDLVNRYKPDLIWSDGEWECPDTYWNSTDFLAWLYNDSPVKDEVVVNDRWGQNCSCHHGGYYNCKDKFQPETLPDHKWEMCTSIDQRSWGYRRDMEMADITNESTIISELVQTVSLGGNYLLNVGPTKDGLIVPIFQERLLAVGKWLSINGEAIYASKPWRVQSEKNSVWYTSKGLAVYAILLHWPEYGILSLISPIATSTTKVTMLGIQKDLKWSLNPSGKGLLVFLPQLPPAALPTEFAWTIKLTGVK
Kind of experiment: Inhibition of bovine kidney alpha-L-fucosidase at 1000 uM using p-nitrophenyl-glycoside as substrate by spectrophotometric method.

The target of experiment [10] is T3, Uncharacterized protein (Sus scrofa) (UniProt I3LIR5).
T3 sequence (whole entry): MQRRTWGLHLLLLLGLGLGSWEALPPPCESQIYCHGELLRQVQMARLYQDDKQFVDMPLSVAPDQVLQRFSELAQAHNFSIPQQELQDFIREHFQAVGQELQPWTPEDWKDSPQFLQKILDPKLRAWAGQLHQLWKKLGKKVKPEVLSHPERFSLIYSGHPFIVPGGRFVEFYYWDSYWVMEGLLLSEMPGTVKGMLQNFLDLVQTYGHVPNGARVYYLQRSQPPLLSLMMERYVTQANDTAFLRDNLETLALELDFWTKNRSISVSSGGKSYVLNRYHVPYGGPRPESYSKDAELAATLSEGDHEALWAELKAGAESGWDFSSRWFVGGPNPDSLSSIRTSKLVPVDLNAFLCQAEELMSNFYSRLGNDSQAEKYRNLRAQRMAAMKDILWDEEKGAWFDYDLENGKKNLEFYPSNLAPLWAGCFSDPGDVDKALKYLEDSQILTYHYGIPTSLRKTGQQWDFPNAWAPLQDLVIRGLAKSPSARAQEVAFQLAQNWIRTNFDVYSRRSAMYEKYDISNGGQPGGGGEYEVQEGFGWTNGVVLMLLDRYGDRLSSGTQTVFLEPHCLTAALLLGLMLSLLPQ
The experiment can be described thus: Inhibition of porcine kidney trehalase assessed as D-glucose level at 1000 uM using maltose as substrate measured after 10 to 30 mins.

The subject of experiment [11] is Escherichia coli. Kind of experiment: Inhibition of Escherichia coli beta-glucuronidase at 1000 uM using p-nitrophenyl-glycoside as substrate by spectrophotometric method.
Experiment [12] in a line: Inhibition of Penicillium decumbens alpha-L-rhamnosidase using p-nitrophenyl-glycoside as substrate by spectrophotometric method.
The subject of experiment [13] is Prunus dulcis. The experiment can be described thus: Inhibition of almond beta-glucosidase at 100 uM using p-nitrophenyl-glycoside as substrate by spectrophotometric method.
A short description of experiment [14]: Inhibition of bovine liver beta-glucosidase using p-nitrophenyl-glycoside as substrate by spectrophotometric method. On the set-up: species or system Bos taurus.
Experiment [15] can be described thus: Inhibition of human lysosomal beta-glucosidase using 4-methylumbelliferyl-beta-D-glucopyranoside as substrate preincubated for 45 mins followed by substrate addition measured after 30 mins by fluorescence spectrophotometric method.
In experiment [16] the test system is Oryza sativa. The experiment can be described thus: Inhibition of rice alpha-glucosidase at 100 uM using p-nitrophenyl-glycoside as substrate by spectrophotometric method.
The species entered for experiment [17] is Rattus norvegicus. The experiment can be described thus: Inhibition of rat intestinal maltase assessed as D-glucose level at 100 uM using maltose as substrate measured after 10 to 30 mins.
Another experiment addresses T4, Beta-galactosidase (Bos taurus, UniProt Q58D55).
T4 sequence (Q58D55 whole entry): T1 sequence (whole entry)
The experiment can be described thus: Inhibition of bovine liver beta-galactosidase using p-nitrophenyl-glycoside as substrate by spectrophotometric method.

Experiment [18] deals with Aspergillus niger. The experiment can be described thus: Inhibition of Aspergillus niger amyloglucosidase assessed as D-glucose level at 100 uM using maltose as substrate measured after 10 to 30 mins.
For experiment [19], the target named is T2, Tissue alpha-L-fucosidase (Bos taurus). Kind of experiment: Inhibition of bovine kidney alpha-L-fucosidase at 100 uM using p-nitrophenyl-glycoside as substrate by spectrophotometric method.
In experiment [20] the target is T3, Uncharacterized protein (Sus scrofa). The experiment can be described thus: Inhibition of porcine kidney trehalase assessed as D-glucose level at 100 uM using maltose as substrate measured after 10 to 30 mins.
For experiment [21], the system named is Escherichia coli. The experiment can be described thus: Inhibition of Escherichia coli beta-glucuronidase at 100 uM using p-nitrophenyl-glycoside as substrate by spectrophotometric method.
The species named for experiment [22] is Bos taurus. Kind of experiment: Inhibition of bovine liver beta-glucosidase at 100 uM using p-nitrophenyl-glycoside as substrate by spectrophotometric method.
Experiment [23] is filed under the species Homo sapiens. Kind of experiment: Inhibition of human lysosomal beta-glucosidase at 100 uM using 4-methylumbelliferyl-beta-D-glucopyranoside as substrate preincubated for 45 mins followed by substrate addition measured after 30 mins by fluorescence spectrophotometric method.

Compound `C[C@@H]1C[C@H](O)[C@H]2[C@@H](O)[C@@H](O)CN2C1` gave a half-maximal inhibitory concentration (IC50) in experiment [1] of 0.032 to 0.034 µM.
Same read-out and setting: then `OC[C@H](O)[C@@H]1NC[C@H](O)[C@@H]1O`, with 52.8 µM.
Still for that read-out and setting: then `OC[C@H]1[C@@H](O)[C@@H](O)CN1Cc1ccccc1`, with 21 µM.
For `CCCCNC(=S)N1[C@H](CO)[C@@H](O)[C@H](O)[C@H]1CO`, the inhibition in the experiment on Penicillium decumbens, in the experiment with Prunus dulcis [2], in the experiment listed under Bos taurus [3], in the experiment filed under Homo sapiens [4], in the experiment with Aspergillus niger [5] and in the experiment with Oryza sativa [6] was < 50% each time. Besides, the inhibition (in the experiment filed under Rattus norvegicus [7]; in experiment [8]; in experiment [9]; in experiment [10]; with Escherichia coli [11]) was < 50% each time.
In [1], `OC[C@@H]1[C@H](O)[C@@H](O)[C@@H]2CCCCN12` gave a half-inhibitory concentration (IC50) of 3.3 µM.
Turning to `CCCCCCCCCCCC/N=C1/SC[C@@H]2[C@@H](O)[C@H](O)[C@@H](CO)N12`, the IC50 was 67 µM in [12], 63 µM in experiment [14], 1 µM in experiment [15] and 32 µM on Beta-galactosidase. The inhibition (in the experiment with Prunus dulcis [13]; in the experiment on Oryza sativa [16]; in the experiment filed under Rattus norvegicus [17]; with Aspergillus niger [18]; in [19]; in experiment [20]) was < 50% throughout. For the same compound, in the experiment with Escherichia coli [21], the inhibition is < 50%.
Consider `C[C@H]1N[C@@H](CO)[C@H](O)[C@H](O)[C@H]1O`, for which the half-inhibitory concentration (IC50) in [1] was found to be 850 µM.
Consider `CCCC/N=C1/SC[C@@H]2[C@@H](O)[C@H](O)[C@@H](CO)N12`, for which the inhibition in the experiment with Penicillium decumbens, in the experiment on Prunus dulcis [2], in the experiment listed under Bos taurus [3], with Aspergillus niger [5], in the experiment on Oryza sativa [6] and in the experiment listed under Rattus norvegicus [7] was < 50% in each case. For the same compound, the inhibition (in [8]; in experiment [9]; in experiment [10]; in the experiment with Escherichia coli [11]) was < 50% in each case. Also, the half-maximal inhibitory concentration (IC50) in [15] came to 532 µM.
As for `CCCCCCNC(=S)N1[C@H](CO)[C@@H](O)[C@H](O)[C@H]1CO`, the inhibition with Penicillium decumbens, with Prunus dulcis [2], in the experiment filed under Bos taurus [3], in the experiment filed under Homo sapiens [4], in the experiment with Aspergillus niger [5] and with Oryza sativa [6] was < 50% each time. Also, the inhibition (in the experiment filed under Rattus norvegicus [7]; in [9]; in [10]; with Escherichia coli [11]) was < 50% in each case. Further, the half-maximal inhibitory concentration (IC50) against Beta-galactosidase amounted to 1000 µM.
Regarding `CCCCCCNC(=S)N1[C@@H](CO)[C@H](O)[C@@H](O)[C@@H]1CO`, the inhibition in the experiment with Penicillium decumbens, in the experiment on Prunus dulcis [2], in the experiment listed under Bos taurus [3], in the experiment filed under Homo sapiens [4], in the experiment with Aspergillus niger [5] and in the experiment with Oryza sativa [6] was < 50% throughout. The inhibition (in the experiment filed under Rattus norvegicus [7]; in experiment [9]; in [10]; in the experiment with Escherichia coli [11]) was < 50% throughout. On Beta-galactosidase, the IC50 turned out to be 572 µM.
With `CCCCCCCCNC(=S)N1[C@H](CO)[C@@H](O)[C@H](O)[C@H]1CO`, the inhibition (with Penicillium decumbens; with Prunus dulcis [2]; with Aspergillus niger [5]; in the experiment on Oryza sativa [6]; in the experiment filed under Rattus norvegicus [7]; in experiment [9]) was < 50% each time. Further, the inhibition (in experiment [10]; with Escherichia coli [11]) was < 50% throughout. Besides, the IC50 in experiment [14] was 689 µM; in [15], 12 µM; against Beta-galactosidase, 414 µM.
For `CCCCCCCCCC/N=C1/SC[C@H]2[C@H](O)[C@@H](O)[C@H](CO)N12`, the values for the concentration for half-maximal inhibition (IC50) (in experiment [12]; against Beta-galactosidase) were 0.77 µM and 36 µM, respectively. Further, the inhibition (in the experiment with Prunus dulcis [13]; in the experiment listed under Bos taurus [22]; with Oryza sativa [16]; in the experiment listed under Rattus norvegicus [17]; in the experiment on Aspergillus niger [18]; in [19]) was < 50% in each case. In addition, the inhibition (in [20]; in the experiment filed under Homo sapiens [23]; in the experiment with Escherichia coli [21]) was < 50% in each case.
For the compound `COc1ccc(C[C@@H]2NC[C@H](O)[C@H]2O)cc1`, the half-maximal inhibitory concentration (IC50) in experiment [1] was 3.7 µM.
As for `CCCCCC/N=C1/SC[C@@H]2[C@@H](O)[C@H](O)[C@@H](CO)N12`, the values for the 50% inhibitory concentration (IC50) in [12] and in experiment [15] were 494 µM and 16 µM, respectively. Moreover, the inhibition (in the experiment with Prunus dulcis [2]; in the experiment listed under Bos taurus [3]; with Aspergillus niger [5]; in the experiment with Oryza sativa [6]; in the experiment listed under Rattus norvegicus [7]; in experiment [8]) was < 50% each time. The inhibition (in [9]; in experiment [10]; in the experiment on Escherichia coli [11]) was < 50% in each case.
Turning to `CCCCCCCCCCCC/N=C1/SC[C@H]2[C@H](O)[C@@H](O)[C@H](CO)N12`, the IC50 in experiment [12] is 0.46 µM; in experiment [14], 9.5 µM; against Beta-galactosidase it was 11 µM. Moreover, the inhibition (with Prunus dulcis [13]; in the experiment with Oryza sativa [16]; in the experiment filed under Rattus norvegicus [17]; with Aspergillus niger [18]; in experiment [19]; in experiment [20]) was < 50% in each case. For the same compound, the inhibition in the experiment listed under Homo sapiens [23] and with Escherichia coli [21] was < 50% each time.
